This is an account of results in patent US20230092762A1, “THERAPEUTIC DELIVERY OF LOCKED NUCLEIC ACID CONJUGATED ANTISENSE MIR-1” (THE TRUSTEES OF INDIANA UNIVERSITY, priority 2020, published 2023).

One assay relates to BAX. Kind of assay: Western blot analysis of BAX in human keratinocytes. It counts as cell-based. The settings on record: 20 μM, 24 h. The procedure:
Western Blot Analysis. Immunoblotting was performed using HaCaT cell and wound tissue lysates. After protein extraction, the protein concentration was determined by BCA protein assay as described earlier. The samples (10-20 μg of protein/lane) were separated on a 4-12% SDS polyacrylamide gel electrophoresis and probed with rabbit polyclonal anti-notch1 […] antibody (1:1000 dilution, Abcam, Cambridge, Mass.), rabbit polyclonal anti-BAX antibody (1:1000 dilution, Abcam, Cambridge, Mass.), HRP conjugated anti-GAPDH (1:10,000 dilution). Bands were visualized by horseradish peroxidase-conjugated anti-rabbit-IgG raised in donkey and horseradish peroxidase-conjugated anti-mouse-IgG raised in sheep (Amersham Biosciences, Piscataway, N.J.) at 1:2,000 dilution and the enhanced chemiluminescence assay (Amersham Biosciences, Piscataway, N.J.).
(In general: Immunoblotting shows a protein as a band on a membrane.)

The test system of the next assay is breast cancer stem cells. The settings on record: phase I trial; cited from earlier work.
The test system of assay [1] is human keratinocytes. Kind of assay: Measurement of mitochondrial membrane potential (JC-1 flow cytometry; TMRM/PMPI). The assay is classed as cell-based. The procedure:
Measurement of Mitochondrial Membrane Potential. Mitochondrial membrane potential changes were assessed by two different techniques, a) using the lipophilic cationic dye JC-1 (MitoProbe JC-1 Assay Kit for Flow Cytometry, Life technologies) per manufacturer's instruction by flow cytometer. Mitochondrial membrane potential was also evaluated b) using TMRM/PMPI after 48 hours of control/[…] mimic transfection. The images were captured by confocal microscope and the quantification of fluorescent intensity was measured using FV1000 software (Olympus, Tokyo, Japan).
For orientation: In flow cytometry, cells or beads pass a laser one at a time.

In assay [2] the test system is human keratinocytes. Kind of assay: Respirometry assay (OCR, XF-96 Seahorse). It counts as cell-based. The settings on record: 20 μM, 24 h, vs vehicle control. The procedure:
Respirometry Assay. The Oxygen Consumption Rate (OCR) measurements were performed using a Seahorse Bioscience XF-96 instrument. A day prior to the experiment, the sensor cartridge was hydrated overnight using the calibration buffer supplied by the manufacturer. The transfected cells were seeded in the 96 well microplate supplied by the company. On the day of the experiment, the cells were washed with the calibrant buffer twice and incubated with glucose free DMEM for 2 h at 37° C. in a CO2 free incubator. The injection ports of the sensors were filled with 20 μL of treatment or vehicle in buffer. The sensor was then placed into the XF-96 instrument and calibrated. After calibration, the calibration fluid plate was replaced with the cell plate. The measurement cycle consisted of a 2 min mix, 1 min wait, and a 2 min measurement. Four basal rate measurements were followed with injections and each injection is followed by four measurement cycles. The consumption rates were calculated from the continuous average slope of the O2 decreases using a compartmentalization model. For any one treatment, the rates from 10 wells were used. Rates for the wells were normalized for protein content. All average rates were normalized to the vehicle control basal and t-tests between control and treatment were used to assess statistical significance.

Each structure is given as a SMILES string.

With `O=C(O)CC[C@H]1CC[C@@](c2cc(F)ccc2F)(S(=O)(=O)c2ccc(Cl)cc2)CC1` [MK-0752], in the assay on BAX, the BAX dimerization entry is “caused BAX dimerization”. In addition, in the assay on breast cancer stem cells, the “breast cancer stem cells” value is “reduction of breast cancer stem cells”. Besides, the “JC-1 green fluorescence (compromised ΔΨ)” value in the assay on human keratinocytes [1] (JC-1, 20 μM, 24 h) is given as “significant increase in JC-1 green fluorescence”. Further, the TMRM fluorescence result in the assay on human keratinocytes [1] (TMRM and PMPI staining, 20 μM, 24 h) is “significant decrease in TMRM fluorescence”. Besides, the “mitochondrial membrane potential (ΔΨ)” value in the assay on human keratinocytes [1] (studies using TMRM and PMPI) is on record as “lowered ΔΨ”. Further, in the assay on human keratinocytes [2], the ATP production entry is on record as “significant decrease”, the basal respiration result is reported as “significant decrease” and the “rate of oxygen consumption” value is listed as “decreased rate of oxygen consumption”.
